Biological target: T1, Bcl-2 protein (Recombinant Human Bcl-2 Protein) (Homo sapiens, UniProt P10415)
T1 construct: purchased Novus Biologicals NBP2-34889
Experiment: AS-MS evaluation of binding of the Example 4 mixture library (1200 compounds/well) to Bcl-2, ASMS ratio (%)
In short: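 Affinity-selection MS: 1200 cpds/well, 20 nM each; hBcl-2 20 μM; 25 mM Tris pH 7.4/150 mM NaCl/0.025% Tween-20/1 mM DTT; 1 h, 23 °C, dark; P-2 size-exclusion spin, MeCN:MeOH 1:1 extraction; RP LC/MS; ratio vs no-protein STD and SEC blank.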

[1] = replicate n = 1, mixture library, value belongs to the MS peak assigned to the compound
[2] = replicate n = 2, mixture library, value belongs to the MS peak assigned to the compound
[3] = AS-MS, Example 4 mixture library, Bcl-2, replicate n = 1
[4] = AS-MS, Example 4 mixture library, Bcl-2, replicate n = 2

T1 sequence (P10415 whole entry): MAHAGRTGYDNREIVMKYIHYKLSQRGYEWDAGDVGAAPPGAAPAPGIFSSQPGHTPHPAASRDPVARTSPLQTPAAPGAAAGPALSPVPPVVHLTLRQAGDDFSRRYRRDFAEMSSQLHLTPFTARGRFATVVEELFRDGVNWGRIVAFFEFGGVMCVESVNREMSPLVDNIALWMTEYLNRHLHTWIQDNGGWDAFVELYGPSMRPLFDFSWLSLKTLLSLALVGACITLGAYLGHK

SMILES | ASMS ratio (%) n = 1 [3] [%] | ASMS ratio (%) n = 2 [4] [%] | also measured
CCOc1cccc(-c2ccc(C(=O)N3CCN(c4ccc(C(=O)NS(=O)(=O)C(C)(C)C)nn4)CC3)cc2C)c1 [Compound B2L003-01] | – | – | ASMS ratio (%) n = 1 [1]: 0.0%; ASMS ratio (%) n = 2 [2]: 0.0%
CCOc1cncc(-c2ccc(CN3CCN(c4ccc(C(=O)NS(=O)(=O)CCC(F)(F)F)nn4)CC3)cc2C)c1 [Compound B2N074-01, 6-[4-[[4-(5-Ethoxypyridin-3-yl)-3-methylphenyl]methyl]piperazin-1-yl]-N-(3,3,3-trifluoropropylsulfonyl)pyridazine-3-carboxamide] | 0.0 | 0.0 | –
CCOc1cccc(-c2cnn(-c3cc(C(=O)N4CCN(c5ccc(C(=O)NS(=O)(=O)CCC(F)(F)F)cc5)CC4)cc(C(F)(F)F)c3)c2)c1 [Compound B2N043-01, 4-[4-[3-[4-(3-Ethoxyphenyl)pyrazol-1-yl]-5-(trifluoromethyl)benzoyl]piperazin-1-yl]-N-(3,3,3-trifluoropropylsulfonyl)benzamide] | −1.4 | 0.1 | –
CCOc1cccc(-c2ccccc2CN2CCN(c3ccc(C(=O)NS(C)(=O)=O)nn3)CC2)c1 [Compound B2I071-01, 6-[4-[[2-(3-Ethoxyphenyl)phenyl]methyl]piperazin-1-yl]-N-methylsulfonylpyridazine-3-carboxamide] | – | – | ASMS ratio (%) n = 1 [1]: −1.2%; ASMS ratio (%) n = 2 [2]: −1.9%
CCOc1cncc(C#Cc2ccccc2CN2CCN(c3ccc(C(=O)NS(C)(=O)=O)cc3)CC2)c1 [Compound B2I070-01, 4-[4-[[2-[2-(5-Ethoxypyridin-3-yl)ethynyl]phenyl]methyl]piperazin-1-yl]-N-methylsulfonylbenzamide] | – | – | ASMS ratio (%) n = 2 [2]: 0.0%
CCOc1cncc(-c2csc(CN3CCN(c4ccc(C(=O)NS(C)(=O)=O)cc4)CC3)c2)c1 [Compound B2I068-01, 4-[4-[[4-(5-Ethoxypyridin-3-yl)thiophen-2-yl]methyl]piperazin-1-yl]-N-methylsulfonylbenzamide] | – | – | ASMS ratio (%) n = 1 [1]: 0.0%; ASMS ratio (%) n = 2 [2]: 0.0%
CCOc1cccc(-c2csc(C(=O)N3CCN(c4ccc(C(=O)NS(=O)(=O)CCC(F)(F)F)nn4)CC3)c2)c1 [Compound B2N001-01, 6-[4-[4-(3-Ethoxyphenyl)thiophene-2-carbonyl]piperazin-1-yl]-N-(3,3,3-trifluoropropylsulfonyl)pyridazine-3-carboxamide] | – | 0.0 | –
CCOc1cccc(-c2ccccc2CN2CCN(c3ccc(C(=O)NS(=O)(=O)CCC(F)(F)F)cc3)CC2)c1 [Compound B2N045-01, 4-[4-[[2-(3-Ethoxyphenyl)phenyl]methyl]piperazin-1-yl]-N-(3,3,3-trifluoropropylsulfonyl)benzamide] | 0.0 | 0.1 | –
CCCNC(=O)c1ccc(N2CCN(C(=O)c3cncc(C#Cc4cncc(OCC)c4)c3)CC2)nn1 [Compound B1M010-01] | – | – | ASMS ratio (%) n = 1 (AS-MS, mixture of 1200 compounds/well, Bcl-2 protein, replicate n = 1): 0.0%; ASMS ratio (%) n = 2 (AS-MS, mixture of 1200 compounds/well, Bcl-2 protein, replicate n = 2): 0.0%
CCOc1cncc(-c2cc(CN3CCN(c4ccc(C(=O)NS(=O)(=O)C(C)(C)C)cc4)CC3)cc(OC(C)C)c2)c1 [Compound B2L058-01] | – | – | ASMS ratio (%) n = 1 [1]: 0.0%; ASMS ratio (%) n = 2 [2]: 0.0%
CCOc1cccc(-c2cc(C(=O)N3CCN(c4ccc(C(=O)NS(=O)(=O)C(C)(C)C)cc4)CC3)cc(C(F)(F)F)c2)c1 [Compound B2L039-01, N-tert-Butylsulfonyl-4-[4-[3-(3-ethoxyphenyl)-5-(trifluoromethyl)benzoyl]piperazin-1-yl]benzamide] | – | – | ASMS ratio (%) n = 1 [1]: 0.0%; ASMS ratio (%) n = 2 [2]: 0.0%
CCOc1cccc(-c2cc(C(=O)N3CCN(c4ccc(C(=O)NS(=O)(=O)CCC(F)(F)F)cc4)CC3)cc(C(C)(C)C)c2)c1 [Compound B2N037-01, 4-[4-[3-tert-Butyl-5-(3-ethoxyphenyl)benzoyl]piperazin-1-yl]-N-(3,3,3-trifluoropropylsulfonyl)benzamide] | 0.0 | 0.0 | –
CCOc1cncc(-c2ccc(C(=O)N3CCN(c4ccc(C(=O)NS(=O)(=O)c5ccc(NCCSc6ccccc6)c(C(F)(F)F)c5)cc4)CC3)cc2C)c1 [Compound B2R026-01, 4-[4-[4-(5-Ethoxypyridin-3-yl)-3-methylbenzoyl]piperazin-1-yl]-N-[4-(2-phenylsulfanylethylamino)-3-(trifluoromethyl)phenyl]sulfonylbenzamide] | 1.7 | −4.6 | –

Continued, in another order:

ASMS ratio (%) n = 1 [3] [%] | ASMS ratio (%) n = 2 [4] [%] | SMILES | also measured
0.0 | 1.0 | CCOc1cncc(-c2cc(C(=O)N3CCN(c4ccc(C(=O)NS(=O)(=O)CCC(F)(F)F)nn4)CC3)cc(C(F)(F)F)c2)c1 [Compound B2N018-01, 6-[4-[3-(5-Ethoxypyridin-3-yl)-5-(trifluoromethyl)benzoyl]piperazin-1-yl]-N-(3,3,3-trifluoropropylsulfonyl)pyridazine-3-carboxamide] | –
0.0 | 0.0 | CCOc1cccc(-c2ccc(CN3CCN(c4ccc(C(=O)NS(=O)(=O)CCC(F)(F)F)cc4)CC3)c3ccccc23)c1 [Compound B2N065-01, 4-[4-[[4-(3-Ethoxyphenyl)naphthalen-1-yl]methyl]piperazin-1-yl]-N-(3,3,3-trifluoropropylsulfonyl)benzamide] | –
7.5 | 7.7 | CCOc1cccc(-c2ccc(C(=O)N3CCN(c4ccc(C(=O)NS(=O)(=O)c5ccc(NCCSc6ccccc6)c(C(F)(F)F)c5)nn4)CC3)c3ccccc23)c1 [Compound B2R013-01, 6-[4-[4-(3-Ethoxyphenyl)naphthalene-1-carbonyl]piperazin-1-yl]-N-[4-(2-phenylsulfanylethylamino)-3-(trifluoromethyl)phenyl]sulfonylpyridazine-3-carboxamide] | –
12.7 | −1.8 | CCOc1cccc(-c2ccc(CN3CCN(c4ccc(C(=O)NS(=O)(=O)c5ccc(NCCSc6ccccc6)c(C(F)(F)F)c5)cc4)CC3)cc2F)c1 [Compound B2R051-01, 4-[4-[[4-(3-Ethoxyphenyl)-3-fluorophenyl]methyl]piperazin-1-yl]-N-[4-(2-phenylsulfanylethylamino)-3-(trifluoromethyl)phenyl]sulfonylbenzamide] | –
9.2 | 7.5 | CCOc1cncc(-c2ccc(CN3CCN(c4ccc(C(=O)NS(=O)(=O)c5ccc(NCCSc6ccccc6)c(C(F)(F)F)c5)cc4)CC3)cc2C)c1 [Compound B2R048-01] | –
0.0 | 0.0 | CCOc1cncc(-c2ccc(CN3CCN(c4ccc(C(=O)NS(=O)(=O)c5ccc(NCCSc6ccccc6)c(C(F)(F)F)c5)cc4)CC3)c(CC)c2)c1 [Compound B2R050-01] | –
– | 0.0 | CCOc1cncc(-c2cc(OC)c(CN3CCN(c4ccc(C(=O)NS(=O)(=O)C(C)(C)C)nn4)CC3)c(OC)c2)c1 [Compound B2L086-01] | –
13.0 | 0.0 | CCOc1cccc(-c2cnn(-c3cc(C(=O)N4CCN(c5ccc(C(=O)NS(=O)(=O)c6ccc(NCCSc7ccccc7)c(C(F)(F)F)c6)nn5)CC4)cc(C(F)(F)F)c3)c2)c1 [Compound B2R021-01, 6-[4-[3-[4-(3-Ethoxyphenyl)pyrazol-1-yl]-5-(trifluoromethyl)benzoyl]piperazin-1-yl]-N-[4-(2-phenylsulfanylethylamino)-3-(trifluoromethyl)phenyl]sulfonylpyridazine-3-carboxamide] | –

Source: US20250154686A1, “COMPOUND LIBRARY” (CHUGAI SEIYAKU KABUSHIKI KAISHA, priority 2021, published 2025)
